Measured values taken from ChEMBL document CHEMBL2177100, “Structural optimization and structure-activity relationships of N2-(4-(4-Methylpiperazin-1-yl)phenyl)-N8-phenyl-9H-purine-2,8-diamine derivatives, a new class of reversible kinase inhibitors targeting both EGFR-activating and resistance mutations” (J Med Chem, 2012).
Calls of active or inactive are those of the source. The rule behind the calls is not given here.

Assays:
[1] = Inhibition of human recombinant PKA by radiometric kinase assay
[2] = molecular target: Tyrosine-protein kinase JAK2 (Homo sapiens, UniProt O60674); assay: Inhibition of human recombinant JAK2 by radiometric kinase assay
[3] = molecular target: Mast/stem cell growth factor receptor Kit (Homo sapiens, UniProt P10721); assay: Inhibition of human recombinant KIT by radiometric kinase assay
Chain of Mast/stem cell growth factor receptor Kit (P10721 whole entry): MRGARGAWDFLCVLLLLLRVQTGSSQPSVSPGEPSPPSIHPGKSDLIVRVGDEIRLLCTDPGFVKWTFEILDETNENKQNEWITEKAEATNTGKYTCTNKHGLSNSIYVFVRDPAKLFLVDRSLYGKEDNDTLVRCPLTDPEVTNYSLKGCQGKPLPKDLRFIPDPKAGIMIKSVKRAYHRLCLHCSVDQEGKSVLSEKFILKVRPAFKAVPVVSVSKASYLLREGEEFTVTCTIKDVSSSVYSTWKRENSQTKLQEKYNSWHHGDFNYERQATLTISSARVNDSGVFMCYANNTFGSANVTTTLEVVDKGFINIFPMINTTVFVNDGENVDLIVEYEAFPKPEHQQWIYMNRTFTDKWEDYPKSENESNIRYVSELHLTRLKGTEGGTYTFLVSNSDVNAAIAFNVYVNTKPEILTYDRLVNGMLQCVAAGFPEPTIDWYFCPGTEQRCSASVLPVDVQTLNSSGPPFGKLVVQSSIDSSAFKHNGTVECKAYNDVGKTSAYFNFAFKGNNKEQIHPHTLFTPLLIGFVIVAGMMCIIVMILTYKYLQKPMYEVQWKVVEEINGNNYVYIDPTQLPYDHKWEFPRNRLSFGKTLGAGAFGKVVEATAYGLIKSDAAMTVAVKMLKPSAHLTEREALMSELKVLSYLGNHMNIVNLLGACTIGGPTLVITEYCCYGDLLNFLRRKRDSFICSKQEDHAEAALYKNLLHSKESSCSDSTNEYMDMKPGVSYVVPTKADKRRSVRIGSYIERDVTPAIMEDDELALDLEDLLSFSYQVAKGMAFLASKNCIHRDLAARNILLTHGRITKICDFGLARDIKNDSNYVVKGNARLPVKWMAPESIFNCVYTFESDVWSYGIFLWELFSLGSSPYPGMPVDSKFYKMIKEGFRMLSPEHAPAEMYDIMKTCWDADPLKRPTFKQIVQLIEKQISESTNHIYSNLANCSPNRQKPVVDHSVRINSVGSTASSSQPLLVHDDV

[4] = molecular target: Mitogen-activated protein kinase 12 (Homo sapiens, UniProt P53778); assay: Inhibition of human recombinant p38gamma by radiometric kinase assay
Chain of Mitogen-activated protein kinase 12 (P53778 whole entry): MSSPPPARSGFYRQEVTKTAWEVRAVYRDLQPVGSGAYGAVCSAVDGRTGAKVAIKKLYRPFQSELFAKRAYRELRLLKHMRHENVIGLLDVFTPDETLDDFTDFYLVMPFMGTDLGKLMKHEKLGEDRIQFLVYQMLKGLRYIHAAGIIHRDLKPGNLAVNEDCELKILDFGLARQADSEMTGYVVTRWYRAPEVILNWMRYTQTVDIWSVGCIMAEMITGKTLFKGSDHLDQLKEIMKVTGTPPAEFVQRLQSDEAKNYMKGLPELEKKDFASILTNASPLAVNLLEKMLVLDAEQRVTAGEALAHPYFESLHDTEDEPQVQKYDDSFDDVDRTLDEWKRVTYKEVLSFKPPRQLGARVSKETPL

[5] = molecular target: Non-receptor tyrosine-protein kinase TYK2 (Homo sapiens, UniProt P29597); assay: Inhibition of human recombinant TYK2 by radiometric kinase assay
Rattus norvegicus = assay: Volume of distribution at steady state in Sprague-Dawley rat at 20 mg/kg, po; format: ADME, organism-based; set-up: dose 20 mg/kg, route oral; conditions: in vivo
Insulin receptor = Insulin receptor (Homo sapiens, UniProt P06213); assay: Inhibition of human recombinant INSR by radiometric kinase assay
Chain of Insulin receptor (P06213 28-758 limits assumed): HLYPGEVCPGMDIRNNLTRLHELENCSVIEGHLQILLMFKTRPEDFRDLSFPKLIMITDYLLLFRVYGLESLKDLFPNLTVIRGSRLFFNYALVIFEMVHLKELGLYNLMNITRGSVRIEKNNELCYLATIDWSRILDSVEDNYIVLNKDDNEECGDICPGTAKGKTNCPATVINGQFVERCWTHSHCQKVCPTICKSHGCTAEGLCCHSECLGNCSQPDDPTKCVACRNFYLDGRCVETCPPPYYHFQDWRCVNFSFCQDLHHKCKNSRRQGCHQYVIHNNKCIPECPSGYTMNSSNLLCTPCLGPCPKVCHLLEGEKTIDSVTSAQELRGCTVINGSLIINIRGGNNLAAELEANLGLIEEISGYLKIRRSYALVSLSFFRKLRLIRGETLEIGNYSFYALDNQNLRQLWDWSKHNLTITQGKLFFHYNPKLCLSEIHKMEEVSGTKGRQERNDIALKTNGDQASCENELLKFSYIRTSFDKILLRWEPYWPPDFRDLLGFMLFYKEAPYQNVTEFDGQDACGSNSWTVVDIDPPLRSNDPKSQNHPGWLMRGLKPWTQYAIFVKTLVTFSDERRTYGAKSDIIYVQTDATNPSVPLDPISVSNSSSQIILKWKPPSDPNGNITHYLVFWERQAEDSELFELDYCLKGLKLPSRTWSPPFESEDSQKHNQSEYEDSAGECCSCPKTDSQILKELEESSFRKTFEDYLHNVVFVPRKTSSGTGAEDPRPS
Chain of Insulin receptor (P06213 763-1382 limits assumed): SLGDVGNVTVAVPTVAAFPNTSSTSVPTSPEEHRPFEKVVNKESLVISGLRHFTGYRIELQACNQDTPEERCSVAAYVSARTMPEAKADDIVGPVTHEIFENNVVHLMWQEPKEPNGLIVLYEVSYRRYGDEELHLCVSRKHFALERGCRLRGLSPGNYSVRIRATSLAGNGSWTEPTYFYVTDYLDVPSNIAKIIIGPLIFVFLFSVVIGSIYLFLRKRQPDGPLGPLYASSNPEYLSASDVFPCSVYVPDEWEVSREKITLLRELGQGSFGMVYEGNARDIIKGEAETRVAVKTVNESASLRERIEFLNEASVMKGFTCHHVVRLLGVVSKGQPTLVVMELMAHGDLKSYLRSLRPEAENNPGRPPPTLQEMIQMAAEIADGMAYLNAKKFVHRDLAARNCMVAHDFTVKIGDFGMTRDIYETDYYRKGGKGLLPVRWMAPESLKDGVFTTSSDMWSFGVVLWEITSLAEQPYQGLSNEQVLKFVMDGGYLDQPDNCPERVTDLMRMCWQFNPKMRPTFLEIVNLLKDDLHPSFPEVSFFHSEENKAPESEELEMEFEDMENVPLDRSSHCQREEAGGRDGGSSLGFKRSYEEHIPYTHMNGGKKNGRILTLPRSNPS

[6] = molecular target: Serine/threonine-protein kinase N1 (Homo sapiens, UniProt Q16512); assay: Inhibition of human recombinant PKN1 by radiometric kinase assay
Chain of Serine/threonine-protein kinase N1 (Q16512 whole entry): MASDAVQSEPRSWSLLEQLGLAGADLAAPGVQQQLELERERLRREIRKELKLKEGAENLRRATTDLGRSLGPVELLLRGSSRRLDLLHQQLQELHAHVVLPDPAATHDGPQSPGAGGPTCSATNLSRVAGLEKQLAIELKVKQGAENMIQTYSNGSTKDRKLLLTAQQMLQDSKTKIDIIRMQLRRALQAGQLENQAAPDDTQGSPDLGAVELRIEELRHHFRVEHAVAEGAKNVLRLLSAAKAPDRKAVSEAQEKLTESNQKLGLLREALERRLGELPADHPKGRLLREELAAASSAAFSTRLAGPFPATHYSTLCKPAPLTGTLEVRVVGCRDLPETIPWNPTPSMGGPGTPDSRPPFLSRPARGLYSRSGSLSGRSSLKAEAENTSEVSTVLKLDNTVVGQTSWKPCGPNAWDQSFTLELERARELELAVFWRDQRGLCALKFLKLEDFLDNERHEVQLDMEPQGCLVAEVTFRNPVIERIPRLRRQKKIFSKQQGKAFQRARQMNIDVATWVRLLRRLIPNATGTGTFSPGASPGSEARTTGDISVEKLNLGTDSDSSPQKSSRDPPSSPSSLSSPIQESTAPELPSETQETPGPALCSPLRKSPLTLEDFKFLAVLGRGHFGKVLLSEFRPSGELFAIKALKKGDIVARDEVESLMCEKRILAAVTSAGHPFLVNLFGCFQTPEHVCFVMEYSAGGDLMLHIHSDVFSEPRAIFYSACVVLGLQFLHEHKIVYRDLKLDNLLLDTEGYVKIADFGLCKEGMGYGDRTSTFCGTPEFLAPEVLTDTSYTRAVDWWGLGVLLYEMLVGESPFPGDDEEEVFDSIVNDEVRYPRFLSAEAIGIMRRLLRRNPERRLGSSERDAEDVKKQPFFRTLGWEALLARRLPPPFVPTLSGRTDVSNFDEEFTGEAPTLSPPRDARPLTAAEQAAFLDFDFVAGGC

[7] = Binding affinity to […] EGFR 747-E749del, A750P mutant by KINOMEscan kinase binding assay
NCI-H292 = assay: Cytotoxicity against human NCI-H292 cells incubated for 72 hrs by MTT assay; format: functional, cell-based; conditions: NCI-H292, 72 h
[8] = molecular target: MAP kinase-interacting serine/threonine-protein kinase 2 (Homo sapiens, UniProt Q9HBH9); assay: Inhibition of human recombinant MNK2 by radiometric kinase assay
Chain of MAP kinase-interacting serine/threonine-protein kinase 2 (Q9HBH9 whole entry): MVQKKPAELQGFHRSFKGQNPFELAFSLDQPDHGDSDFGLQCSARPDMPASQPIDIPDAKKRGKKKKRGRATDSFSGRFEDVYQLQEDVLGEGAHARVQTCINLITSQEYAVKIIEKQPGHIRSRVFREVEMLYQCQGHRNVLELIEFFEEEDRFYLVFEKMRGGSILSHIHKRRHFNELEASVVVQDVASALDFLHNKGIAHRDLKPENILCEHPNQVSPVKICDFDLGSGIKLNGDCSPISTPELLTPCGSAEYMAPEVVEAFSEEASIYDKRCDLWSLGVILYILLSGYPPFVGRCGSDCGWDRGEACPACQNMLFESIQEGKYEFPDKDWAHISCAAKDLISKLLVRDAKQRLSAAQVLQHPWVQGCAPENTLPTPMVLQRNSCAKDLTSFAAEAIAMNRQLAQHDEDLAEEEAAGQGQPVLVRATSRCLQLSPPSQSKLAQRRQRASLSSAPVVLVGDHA

[9] = Inhibition of human recombinant CK1 by radiometric kinase assay
[10] = molecular target: Serine/threonine-protein kinase pim-2 (Homo sapiens, UniProt Q9P1W9); assay: Inhibition of human recombinant PIM2 by radiometric kinase assay
NCI-H1975 = assay: Antitumor activity against human NCI-H1975 cells xenografted in BALB/c mouse assessed as reduction in Ki67 expression at 50 mg/kg/day, po for 10 days by immunohistochemistry; format: functional, organism-based
[11] = molecular target: Serine/threonine-protein kinase N2 (Homo sapiens, UniProt Q16513); assay: Inhibition of human recombinant PKN2 by radiometric kinase assay
[12] = molecular target: MAP kinase-interacting serine/threonine-protein kinase 1 (Homo sapiens, UniProt Q9BUB5); assay: Inhibition of human recombinant MNK1 by radiometric kinase assay
Chain of MAP kinase-interacting serine/threonine-protein kinase 1 (Q9BUB5 whole entry): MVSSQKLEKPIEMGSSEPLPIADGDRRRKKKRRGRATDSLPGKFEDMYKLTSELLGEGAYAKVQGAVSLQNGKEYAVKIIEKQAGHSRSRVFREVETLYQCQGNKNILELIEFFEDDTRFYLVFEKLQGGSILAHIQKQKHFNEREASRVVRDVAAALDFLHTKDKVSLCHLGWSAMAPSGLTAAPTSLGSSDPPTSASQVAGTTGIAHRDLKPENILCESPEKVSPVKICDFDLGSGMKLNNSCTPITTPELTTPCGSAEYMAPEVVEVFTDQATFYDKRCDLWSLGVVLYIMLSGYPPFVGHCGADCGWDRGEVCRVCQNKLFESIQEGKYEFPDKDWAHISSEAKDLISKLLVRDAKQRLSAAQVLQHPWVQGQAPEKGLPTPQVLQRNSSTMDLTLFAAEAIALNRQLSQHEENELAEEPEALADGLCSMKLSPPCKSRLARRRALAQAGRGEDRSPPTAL

HCC827 [13] = assay: Antitumor activity against human HCC827 cells xenografted in BALB/c mouse assessed as complete tumor regression at 5 mg/kg, po qd measured within 15 days compound treatment; format: functional, organism-based; set-up: dose 5 mg/kg
[14] = molecular target: MAP kinase-activated protein kinase 2 (Homo sapiens, UniProt P49137); assay: Inhibition of human recombinant MK2 by radiometric kinase assay
[15] = molecular target: RAC-alpha serine/threonine-protein kinase (Homo sapiens, UniProt P31749); assay: Inhibition of human recombinant PKBalpha by radiometric kinase assay
Chain of RAC-alpha serine/threonine-protein kinase (P31749 whole entry): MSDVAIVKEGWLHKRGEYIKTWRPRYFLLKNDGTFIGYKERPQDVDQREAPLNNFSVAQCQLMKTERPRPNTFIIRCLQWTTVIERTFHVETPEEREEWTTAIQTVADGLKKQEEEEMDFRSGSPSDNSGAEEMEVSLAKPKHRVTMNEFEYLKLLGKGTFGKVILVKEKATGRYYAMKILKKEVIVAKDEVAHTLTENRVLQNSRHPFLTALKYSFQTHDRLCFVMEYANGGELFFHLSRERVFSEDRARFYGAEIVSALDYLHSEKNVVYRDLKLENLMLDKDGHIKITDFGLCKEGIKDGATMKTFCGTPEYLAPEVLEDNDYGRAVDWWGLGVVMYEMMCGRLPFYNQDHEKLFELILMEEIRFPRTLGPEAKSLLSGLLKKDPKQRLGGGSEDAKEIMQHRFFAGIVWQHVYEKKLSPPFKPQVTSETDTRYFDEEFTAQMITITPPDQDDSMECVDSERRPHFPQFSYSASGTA

HCC827 [16] = assay: Antitumor activity against human HCC827 cells xenografted in BALB/c mouse assessed as reduction in Ki67 expression at 1 mg/kg/day, po for 3 days by immunohistochemistry; format: functional, organism-based

IC50 [1]: 1.1 µM
IC50 [2]: 1.2 µM
IC50 [3]: 0.54 µM
IC50 [4]: > 10 µM
IC50 [5]: 6.7 µM
Vdss (Rattus norvegicus): 63.35 L/kg
IC50 (Insulin receptor): > 10 µM
IC50 [6]: 6.1 µM
Kd [7]: 0.0004 µM
IC50 [8]: 3.2 µM
IC50 [9]: > 10 µM
IC50 [10]: > 10 µM
IC50 [11]: > 10 µM
IC50 [12]: 6.7 µM
IC50 [14]: > 10 µM
IC50 [15]: > 10 µM
SMILES: CN1CCN(c2ccc(Nc3ncc4nc(Nc5ccccc5)n(C5CCCC5)c4n3)cc2)CC1
IC50 (NCI-H292): 0.045 µM
Activity (NCI-H1975): Active
Activity (HCC827 [13]): Active
Activity (HCC827 [16]): Active
